The values below come from article PMC12525867, “Aromaticity Tuning in Biaryl Monophosphines and Their Derivatives” (Molecules, 2025).

The test system of one data set is S. aureus ATCC 29213. In words: Antibacterial screening, broth microdilution (MIC/MBC). The class given is cell-based, Staphylococcus aureus. To be noted: for MIC: S. aureus ATCC 29213, MHB, 24 h, 35 °C; for MBC: S. aureus ATCC 29213. How it is done:
(§1) The antimicrobial activities of a series of compounds 1–5 were tested through the utilization of seven reference species, encompassing both Gram-positive (Staphylococcus aureus ATCC 29213, Staphylococcus epidermidis ATCC 12228, Micrococcus luteus ATCC 10240) and Gram-negative (Escherichia coli ATCC 25922, Klebsiella pneumoniae ATCC 13883, Proteus mirabilis ATCC 12453, Acinetobacter baumannii ATCC 19606) bacteria as model microorganisms. For this purpose, microbial suspensions were prepared in sterile saline (0.85% NaCl) with an optical density of 0.5 McFarland standard, yielding a concentration of 150 × 10^6 CFU/mL (CFU, colony-forming units). All of the stock solutions of the tested compounds were dissolved in DMSO. Amoxicillin (Glentham Life Sciences Ltd., Corsham, UK) was used as a positive control.
(§2) The MIC values of the tested compounds were determined by serial twofold dilutions of 1–5 in Mueller Hinton Broth (MHB, Biomaxima, Lublin, Poland). The range of final 1–5 concentrations used was from 0.49 up to 1000 μg/mL, and for amoxicillin from 0.12 up to 250 μg/mL in the 96-well microtiter plates (Medlab, Raszyn, Poland), starting with 98 μL MHB and 2 μL bacterial inoculum added to each well. Positive controls consisted of 100 μL MHB in each well with the tested compounds at the same concentration range. The negative controls consisted of 100 μL of MHB only. Each set of tests and controls was established with three replicates. The microtiter plates were then subjected to an incubation period of 24 h at a temperature of 35 ± 2 °C. After incubation, the optical density of the microbial growth was measured at a wavelength of 600 nm using a microplate reader, the Biotek Elx800 (BioTek Instruments, Inc., Winooski, VT, USA). The MIC value was defined as the lowest concentration of the tested compound at which there was no visible growth of the tested microorganisms. The determination of the MIC values was achieved by employing the broth microdilution method, in accordance with the recommendations of the European Committee on Antimicrobial Susceptibility Testing (EUCAST). […] Then, the MHA plates were incubated overnight at 35 ± 2 °C. […] The MIC and MBC values were reported in μg/mL, according to the EUCAST reference.
For orientation: Broth dilution looks for growth in wells or tubes with falling amounts of substance.

For the next data set, the system named is A. baumannii ATCC 19606. The description is as above. The class given is cell-based, Acinetobacter baumannii. To be noted: for MIC: A. baumannii ATCC 19606, MHB, 24 h, 35 °C. The method, then:
as §1, §2

A further data set concerns P. mirabilis ATCC 12453. The description is as above. The class given is cell-based, Proteus mirabilis. As to conditions: for MIC: P. mirabilis ATCC 12453, MHB, 24 h, 35 °C. How it is done: as §1, §2
The next data set deals with E. coli ATCC 25922. The description is as above. To be noted: for MIC: E. coli ATCC 25922, MHB, 24 h, 35 °C. The data set is classed as cell-based, Escherichia coli. How it is done: as §1, §2
Data set [1] has as its system S. epidermidis ATCC 12228. The data set is described as above. The class given is cell-based, Staphylococcus epidermidis. To be noted: for MIC: S. epidermidis ATCC 12228, MHB, 24 h, 35 °C. The method, then: as §1, §2
For a further data set, the system named is M. luteus ATCC 10240. The description is as above. The class given is cell-based, Micrococcus luteus. As to conditions: for MIC: ATCC10240, 24 h, M. luteus ATCC 10240, MHB, 24 h, 35 °C; for MBC: M. luteus ATCC 10240. The method, then:
as §1, §2

The next data set concerns K. pneumoniae ATCC 13883. The data set is described as above. The class given is cell-based, Klebsiella pneumoniae. As to conditions: for MIC: K. pneumoniae ATCC 13883, MHB, 24 h, 35 °C. How it is done:
as §1, §2

A short description of data set [2]: Cytotoxicity, microculture tetrazolium (MTT) test, H1HeLa. The class given is cell-based. As to conditions: human, H1HeLa cells (cervical adenocarcinoma, ATCC CRL-1958); H1HeLa (cervical adenocarcinoma), 24 h incubation, MTT; ± SD. The method, then: (§3) The cytotoxicity of biaryl monophosphines was tested in vitro in normal (VERO) and cancer-derived (H1HeLa) cells after 24 h of incubation using a microculture tetrazolium test. Table 2 presents the CC50 (concentrations decreasing the cellular viability by 50%) values calculated from dose–response cytotoxicity curves (Figure 4).
(§4) Cytotoxicity was evaluated using a microculture tetrazolium test as previously described, and details can be found in the Supplementary Materials. The cell lines used in the presented study were acquired from the American Type Culture Collection (ATCC); the one used for cytotoxicity testing included non-cancerous VERO (kidney; ATCC CCL-81) cells and cancer-originating H1HeLa (cervical adenocarcinoma; ATCC CRL-1958) cells. VERO cells were cultured in Dulbecco’s Modified Eagle’s Medium (DMEM; Corning, Tewksbury, MA, USA), while Eagle’s Minimum Essential Medium (MEM; Corning) was used for H1HeLa. Antibiotics (penicillin–streptomycin solution, Corning) and fetal bovine serum (FBS, Corning) were added to cell media. Cells were incubated in a 5% CO2 atmosphere at 37 °C (CO2 incubator, Panasonic Healthcare Co., Tokyo, Japan). Briefly, the monolayers of VERO or H1HeLa cells in 96-well plates (Falcon, Corning) were treated with serial dilutions of selected compounds for 24 h. After this, the medium was removed, the plates were washed with phosphate buffered saline (PBS; Corning), a 10% solution of (3-(4,5-dimethylthiazol-2-yl)-2,5-diphenyltetrazolium bromide (MTT; Sigma-Aldrich, St. Louis, MO, USA) (5 mg/mL) in FBS-free cell media was added, and the incubation continued for the next 4 h. Subsequently, the precipitated formazan crystals were dissolved, and after overnight incubation at 37 °C, the Synergy H1 Multi-Mode Microplate Reader (BioTek Instruments, Inc., Winooski, VT, USA) with Gen5 software (ver. 3.09.07; BioTek Instruments, Inc.) was used for absorbance acquisition (540 and 620 nm). Data was exported to GraphPad Prism (ver. 10) to calculate the CC50 values (50% cytotoxic concentration) from dose–response curves.
(§5) Aromaticity Tuning in Biaryl Monophosphines and Their Derivatives […]
(§6) Cell line maintenance and in vitro experiments
(§7) The cytotoxicity of selected biaryl monophosphines was evaluated in vitro towards normal VERO (ATCC, CCL-81) cells and cancer-derived cell line H1HeLa (cervical adenocarcinoma; ATCC (American Type Culture Collection) CRL-1958) using 3-(4,5-dimethylthiazol-2-yl)-2,5-diphenylte-trazolium bromide (MTT) based protocol.
(§8) Media used for in vitro culturing included Dulbecco's Modified Eagle's Medium (DMEM, Corning, Tewksbury, MA, USA) used for VERO cells and Modified Eagle Medium (MEM, Corning) used for H1HeLa. Cell media used in the experiments were supplemented with antibiotics (Penicil-lin-Streptomycin Solution, Corning) and fetal bovine serum (FBS, Corning) – 10% (cell passaging) and 2% (cell maintenance and experiments). Phosphate-buffered saline (PBS) and trypsin were bought from Corning, whereas MTT (3-(4,5-dimethylthiazol-2-yl)-2,5-diphenyltetrazolium bromide) from Sigma (Sigma-Aldrich, St. Louis, MO, USA). SDS was purchased from PanReac Applichem (Darmstadt, Germany). Incubation was carried out in a 5% CO2 atmosphere at 37°C (CO2 incubator, Panasonic Healthcare Co., Tokyo, Japan).
(§9) Concentrations of cells for passaging were as follows: VERO – 1.5*10^5 cells/mL, H1HeLa – 2*10^5 cells/mL. Routine observations of cell cultures and experiments were carried out using an in-verted microscope (CKX41, Olympus Corporation, Tokyo, Japan) equipped with a ca mera (Moti-cam 3+, Motic, Hong Kong), and the results were recorded (Motic Images Plus 2.0, Motic).
(§10) Stock solutions of biaryl monophosphines were prepared by dissolving the samples in cell culture grade DMSO (PanReac Applichem).
(§11) Evaluation of cytotoxicity
(§12) Cytotoxicity was tested using an MTT-based protocol. The cells were passaged into 96-well plates (Falcon, TC-treated, Corning) and, after overnight incubation, treated with serial dilutions of […]

Data set [3] can be described thus: Cytotoxicity, microculture tetrazolium (MTT) test, VERO. The data set is classed as cell-based. As to conditions: African green monkey, ATCC CCL-81; VERO (normal kidney cells), 24 h incubation, MTT; ± SD. How it is done:
as §3, §4, §5, §6, §7, §8, §9, §10, §11, §12

In the next data set the test system is H1HeLa cells. In words: Cytotoxicity, microculture tetrazolium (MTT) test, H1HeLa. The data set is classed as cell-based. How it is done:
as §3, §4, §5, §6, §7, §8, §9, §10, §11, §12

A further data set has as its system VERO cells. In words: Cytotoxicity, microculture tetrazolium (MTT) test, VERO. The class given is cell-based. How it is done: as §3, §4, §5, §6, §7, §8, §9, §10, §11, §12
The mark [4] stands for this setting: Staphylococcus aureus, ATCC29213, read-out: MIC.
[5] abbreviates: Staphylococcus aureus, ATCC29213, read-out: MBC.
[6] abbreviates: Acinetobacter baumannii, ATCC19606, read-out: MIC.
The mark [7] stands for this setting: Proteus mirabilis, ATCC12453, read-out: MIC.
Setting [8] is: Escherichia coli, ATCC25922, read-out: MIC.
[9] abbreviates: Staphylococcus epidermidis, ATCC12228, read-out: MIC.
Setting [10] is: Staphylococcus epidermidis, ATCC12228, S. epidermidis ATCC 12228, read-out: MBC.
The mark [11] stands for this setting: Micrococcus luteus, ATCC10240, read-out: MBC.
The mark [12] stands for this setting: Klebsiella pneumoniae, ATCC13883, read-out: MIC.

By MIC is commonly meant the least concentration at which growth counts as inhibited. What is called MBC is the lowest tested concentration that kills the bacteria rather than only halting them. By CC50 is commonly meant the concentration that lowers cell viability or growth by half.

Values after ≈ are worked out from the molar mass of the structure shown. Where two headings read alike, the source gives them in different places.

With `CC1(C)S[C@@H]2[C@H](NC(=O)[C@H](N)c3ccc(O)cc3)C(=O)N2[C@H]1C(=O)O` [Amox, Amoxicillin, reference compound], the MIC in the data set with S. aureus ATCC 29213 (setting [4]) was determined as 0.98 µg/mL (≈ 2.68 µM); in the data set on A. baumannii ATCC 19606 (setting [6]), 125 µg/mL (≈ 342 µM); in the data set with P. mirabilis ATCC 12453 (setting [7]), 0.49 µg/mL (≈ 1.34 µM); in the data set on E. coli ATCC 25922 (setting [8]) it was 3.91 µg/mL (≈ 10.7 µM); in data set [1] (setting [9]), 31.2 µg/mL (≈ 85.5 µM); with M. luteus ATCC 10240 (Micrococcus luteus) it was 31.2 µg/mL (≈ 85.5 µM). Also, the MIC with K. pneumoniae ATCC 13883 (setting [12]) is 250 µg/mL (≈ 684 µM). Besides, the MBC in the data set on S. aureus ATCC 29213 (setting [5]) stood at 0.98 µg/mL (≈ 2.68 µM); against A. baumannii ATCC 19606 (Acinetobacter baumannii, ATCC19606, A. baumannii ATCC 19606), 125 µg/mL (≈ 342 µM); with P. mirabilis ATCC 12453 (Proteus mirabilis, ATCC12453, P. mirabilis ATCC 12453), 0.49 µg/mL (≈ 1.34 µM); in the data set on E. coli ATCC 25922 (Escherichia coli, ATCC25922, E. coli ATCC 25922) it was 7.81 µg/mL (≈ 21.4 µM); in data set [1] (setting [10]) it was 31.2 µg/mL (≈ 85.5 µM); in the data set on M. luteus ATCC 10240 (setting [11]) it was 31.2 µg/mL (≈ 85.5 µM). This compound yielded an MBC in the data set on K. pneumoniae ATCC 13883 (Klebsiella pneumoniae, ATCC13883, K. pneumoniae ATCC 13883) of 250 µg/mL (≈ 684 µM).
On to `COc1ccccc1-c1c(P(=O)(C2CCCCC2)C2CCCCC2)c(O)c2ccccc2c1O` [Compound 4, 2-(Dicyclohexylphosphoryl)-3-(2-methoxyphenyl)naphthalene-1,4-diol], for which the MIC with S. aureus ATCC 29213 (setting [4]) was 250 µg/mL (≈ 522 µM); in the data set with A. baumannii ATCC 19606 (setting [6]) it was 1000 µg/mL (≈ 2090 µM); with P. mirabilis ATCC 12453 (setting [7]), 1000 µg/mL (≈ 2090 µM); in the data set with E. coli ATCC 25922 (setting [8]), 500 to 1000 µg/mL (≈ 1040 to 2090 µM); in data set [1] (setting [9]) it was 500 µg/mL (≈ 1040 µM); against M. luteus ATCC 10240 (Micrococcus luteus) it was 15.6 to 31.2 µg/mL (≈ 32.7 to 65.3 µM). Besides, the MIC in the data set on K. pneumoniae ATCC 13883 (setting [12]) worked out at 500 µg/mL (≈ 1040 µM). The MBC (in the data set on S. aureus ATCC 29213 (setting [5]); in data set [1] (setting [10]); with M. luteus ATCC 10240 (setting [11])) was above 1000 µg/mL in each case. For the same compound, the CC50 at 24 h stood at 5.53 ± 0.12 µg/mL in data set [2] and 4.7 ± 0.41 µg/mL in data set [3].
With “Dicyclohexyl[1,4-dimethoxy-3-(2,4,6-trimethoxyphenyl)naphthalen-2-yl]phosphane [Compound 5]”, the values for the MBC (with S. aureus ATCC 29213; in data set [1] (S. epidermidis ATCC 12228); in the data set on M. luteus ATCC 10240) were above 1000 µg/mL, 1000 µg/mL and 125 µg/mL, respectively. In addition, the MIC in the data set on S. aureus ATCC 29213 is 125 to 250 µg/mL; in the data set on A. baumannii ATCC 19606, 1000 µg/mL; with P. mirabilis ATCC 12453 it was above 1000 µg/mL; in the data set with E. coli ATCC 25922 it was above 1000 µg/mL; in data set [1] it was 31.25 to 62.5 µg/mL; in the data set on K. pneumoniae ATCC 13883 it was above 1000 µg/mL. Also, the results for the CC50 in the data set on H1HeLa cells and in the data set on VERO cells were 200.85 ± 13.08 µg/mL and 89.88 ± 4.11 µg/mL, respectively. Moreover, in [1] (S. epidermidis ATCC 12228), the “type of activity (bactericidal or bacteriostatic)” value was “bactericidal”.
